In ChEMBL document CHEMBL1145231, “2-Alkoxydihydrocinnamates as PPAR agonists. Activity modulation by the incorporation of phenoxy substituents” (Bioorg Med Chem Lett, 2005):

How the values were obtained:
[1] = target: T1, Peroxisome proliferator-activated receptor delta (Homo sapiens, UniProt Q03181)
T1 sequence (Q03181 whole entry): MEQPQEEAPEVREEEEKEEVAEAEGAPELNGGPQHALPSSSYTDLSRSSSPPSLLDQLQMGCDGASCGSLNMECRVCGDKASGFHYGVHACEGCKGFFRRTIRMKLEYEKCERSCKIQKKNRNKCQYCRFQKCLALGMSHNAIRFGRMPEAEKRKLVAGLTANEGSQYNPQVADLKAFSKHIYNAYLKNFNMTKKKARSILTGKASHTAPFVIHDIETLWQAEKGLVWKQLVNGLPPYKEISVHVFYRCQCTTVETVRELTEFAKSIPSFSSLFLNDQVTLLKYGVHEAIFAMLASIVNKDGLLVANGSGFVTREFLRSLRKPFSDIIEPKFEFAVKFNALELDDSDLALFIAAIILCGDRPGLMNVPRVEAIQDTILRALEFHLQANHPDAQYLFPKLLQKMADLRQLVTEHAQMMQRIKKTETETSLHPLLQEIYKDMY

[2] = target: T2, Peroxisome proliferator-activated receptor alpha (Homo sapiens, UniProt Q07869)
T2 sequence (Q07869 whole entry): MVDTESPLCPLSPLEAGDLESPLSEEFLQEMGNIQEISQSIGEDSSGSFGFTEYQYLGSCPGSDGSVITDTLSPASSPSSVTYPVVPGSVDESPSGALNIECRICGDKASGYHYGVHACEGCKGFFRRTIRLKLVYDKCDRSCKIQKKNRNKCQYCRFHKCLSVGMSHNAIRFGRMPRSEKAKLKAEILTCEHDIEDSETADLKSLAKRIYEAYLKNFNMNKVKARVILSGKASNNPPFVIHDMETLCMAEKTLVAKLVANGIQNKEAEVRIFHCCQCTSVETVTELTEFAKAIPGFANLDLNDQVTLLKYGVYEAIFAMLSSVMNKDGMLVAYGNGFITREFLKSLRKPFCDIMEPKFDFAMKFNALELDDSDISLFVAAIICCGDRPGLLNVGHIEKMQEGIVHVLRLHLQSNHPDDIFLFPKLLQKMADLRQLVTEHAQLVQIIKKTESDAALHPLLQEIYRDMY

[3] = target: T2, Peroxisome proliferator-activated receptor alpha; remark: listed apart in the source
[4] = species: Rattus norvegicus; experiment: animal or person; type: functional

SMILES	IC50 [1] [nM]	IC50 [2] [nM]	EC50 [3] [nM]	ED50 [4] [mg/kg]
CCO[C@@H](Cc1ccc(OCCCOc2ccc(Oc3ccccc3)cc2)cc1)C(=O)O	1570	1690	2750	0.015
CC(C)(Oc1ccc(C(=O)c2ccc(Cl)cc2)cc1)C(=O)O [FENOFIBRIC ACID]		> 10000	> 10000	
CO[C@@H](Cc1ccc(C#CCCCOc2ccc(Oc3ccccc3)cc2)cc1)C(=O)O	4120	770	2620	0.07
CO[C@@H](Cc1ccc(OCCCOc2ccc(C(=O)c3ccccc3)cc2)cc1)C(=O)O	2320	470	2870	0.18
COc1cc(C[C@H](OC)C(=O)O)ccc1OCCCOc1ccc(Oc2ccccc2)cc1	7500	1350	2150	0.12
CO[C@@H](Cc1ccc(OCCCOc2ccc(Oc3ccccc3)cc2)cc1)C(=O)O [NAVEGLITAZAR]	1920	2710	2820	0.1
CO[C@@H](Cc1ccc(OCCCOc2ccc(-c3ccccc3)cc2)cc1)C(=O)O	1390	568	1100	1.5
CO[C@@H](Cc1ccc(OCCCOc2ccc(C(=O)c3ccccc3)cc2)c(Cl)c1)C(=O)O	1510	309	2710	0.29
CO[C@@H](Cc1ccc(C#CCCOc2ccc(Oc3ccccc3)cc2)cc1)C(=O)O	3940	1150	1880	0.08
